Measurements from article PMC7251097, “Aspartate/asparagine-β-hydroxylase: a high-throughput mass spectrometric assay for discovery of small molecule inhibitors” (Scientific Reports, 2020).
Structures can show the parent of a compound that is named as a salt. Where two headings read alike, the source gives them in different places.

Biological target: T1, His6-AspH315–758 (human aspartate/asparagine-β-hydroxylase, AspH) (Homo sapiens, UniProt Q12797)
T1 construct: N-Terminally His6-tagged human AspH315–758 (His6-AspH315–758) was produced in E. coli BL21 (DE3) cells; made in house; host or cells: E. coli BL21 (DE3), pET-28a(+) vector
T1 sequence (Q12797 315-758): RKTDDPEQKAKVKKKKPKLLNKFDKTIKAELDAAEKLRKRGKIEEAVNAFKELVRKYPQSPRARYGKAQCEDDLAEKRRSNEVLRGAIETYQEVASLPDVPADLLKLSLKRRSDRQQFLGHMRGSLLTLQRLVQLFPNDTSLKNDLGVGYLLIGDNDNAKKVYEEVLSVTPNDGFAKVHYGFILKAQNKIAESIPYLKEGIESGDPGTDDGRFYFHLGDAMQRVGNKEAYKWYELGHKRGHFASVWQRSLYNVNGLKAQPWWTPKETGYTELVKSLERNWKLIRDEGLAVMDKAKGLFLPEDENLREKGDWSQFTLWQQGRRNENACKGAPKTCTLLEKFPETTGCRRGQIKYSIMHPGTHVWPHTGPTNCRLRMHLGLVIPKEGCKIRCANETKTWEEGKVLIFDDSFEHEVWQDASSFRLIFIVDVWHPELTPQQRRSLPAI
Assay: SPE-MS AspH inhibition assay (LOPAC screen at fixed 20 μM and IC50 dose-response), hydroxylation of cyclic peptide hFX-CP101–119
Type: biochemical
Details: for Plate 5 (% inhibition) / Plate 5 (% conversion): plate 5 (Pfitzer), test compounds at fixed 20 μM; for Plate 5 (% conversion): mean conversion DMSO 32.88

[1] = LOPAC Plate 4, compound at 20 uM, substrate conversion
[2] = LOPAC Plate 4, compound at 20 uM
[3] = LOPAC compound at 20uM, conversion of substrate peptide
[4] = LOPAC compound at fixed 20 uM, plate 1, normalised to DMSO and 2,4-PDCA controls
[5] = LOPAC compound at fixed 20 uM, substrate conversion, plate 1
[6] = LOPAC compound at 20uM, plate 2, conversion of substrate peptide
[7] = LOPAC compound at 20uM, plate 2, normalised to DMSO and 2,4-PDCA controls

## C=C(C)[C@H]1Cc2c(ccc3c2O[C@@H]2COc4cc(OC)c(OC)cc4[C@@H]2C3=O)O1 [Rotenone]
  % conversion: 46.53%

## CC(=O)c1c(O)c(C)c(O)c(Cc2c(O)c3c(c(C(=O)/C=C/c4ccccc4)c2O)OC(C)(C)C=C3)c1O [Rottlerin]
  % conversion: 14.64%
  inhibition at 20 µM: 64%

## O=c1c2ccccc2nc2n1CCc1c-2[nH]c2ccccc12 [Rutaecarpine]
[1]
  % conversion: 29.23%

## N.N.N.N.N.N.N.N.N.N.N.N.N.N.[Cl-].[Cl-].[Cl-].[Cl-].[Cl-].[Cl-].[O-2].[O-2].[Ru+3].[Ru+3].[Ru+4] [Ruthenium red]
[2]
  % inhibition: -14.56%
[1]
  % conversion: 41.44%

## CC(C)Cc1ccc([C@H](C)C(=O)O)cc1 [S(+)-Ibuprofen]
[3]
  Plate 3 (% conversion): 38.99%

## CC(C)NC[C@H](O)COc1ccc(CC(N)=O)cc1 [S(-)-Atenolol]
[4]
  Plate 1 (% inhibition): -5.71%
[5]
  Plate 1 (% conversion): 37.79%

## CC(C)(C)NC[C@H](O)COc1nsnc1N1CCOCC1.O=C(O)/C=C\C(=O)O [S(-)-Timolol maleate]
[1]
  % conversion: 29.54%

## Brc1ccc([C@H]2CN3CCSC3=N2)cc1.O=C(O)C(=O)O [S(-)-p-Bromotetramisole oxalate]
[4]
  Plate 1 (% inhibition): 75.43%
[5]
  Plate 1 (% conversion): 10.54%

## O=[N+]([O-])c1ccc(CSc2ncnc3c2ncn3[C@@H]2O[C@H](CO)[C@@H](O)[C@H]2O)cc1 [S-(4-Nitrobenzyl)-6-thioinosine]
[3]
  Plate 3 (% conversion): 36.51%

## CNCC[C@H](Oc1ccc(C(F)(F)F)cc1)c1ccccc1.Cl [S-(+)-Fluoxetine hydrochloride]
  Plate 2 (% conversion): 45.11%
20 µM
  Plate 2 (% inhibition): -27.34%

## C[C@@](Cc1ccc(O)c(O)c1)(NN)C(=O)O [S-(-)-Carbidopa]
[6]
  Plate 2 (% conversion): 7.52%
[7]
  Plate 2 (% inhibition): 84.92%

## [N-]=[N+]=Nc1ccc(C(=O)CSC[C@H](NC(=O)CC[C@H](N)C(=O)O)C(=O)NCC(=O)O)cc1 [S-(p-Azidophenacyl)glutathione]
[4]
  Plate 1 (% inhibition): -2.24%
[5]
  Plate 1 (% conversion): 36.62%

## CSC(=N)N.CSC(=N)N.O=S(=O)(O)O [S-Methylisothiourea hemisulfate]
[3]
  Plate 3 (% conversion): 35.95%

## N[C@@H](CCC(=O)N[C@@H](CSN=O)C(=O)NCC(=O)O)C(=O)O [S-Nitrosoglutathione]
[3]
  Plate 3 (% conversion): 32.88%

## Cc1nn(-c2ccccc2)c(C)c1/C=N/N1CCN(Cc2ccccc2)CC1 [SANT-1]
[6]
  Plate 2 (% conversion): 42.39%
[7]
  Plate 2 (% inhibition): -19.21%

## Cl.Cn1ccc2cc(NC(=O)Nc3cccnc3)ccc21 [SB 200646 hydrochloride]
[4]
  Plate 1 (% inhibition): -6.42%
[5]
  Plate 1 (% conversion): 38.03%

## Oc1ccc(-c2nc(-c3ccncc3)c(-c3ccc(F)cc3)[nH]2)cc1 [SB 202190]
[4]
  Plate 1 (% inhibition): -5.28%
[5]
  Plate 1 (% conversion): 37.64%

## Cc1cc(NC(=O)Nc2ccc3c(ccn3C)c2)sn1 [SB 204741]
  Plate 1 (% conversion): 37.70%
  Plate 1 (% inhibition): -5.45%

## CC#CCOC(=O)c1c(C)nc2sc3c(c2c1N)CCC(O)C3 (stereo not drawn) [SB 205384]
  % conversion: 39.48%

## Cn1ccc2cc3c(cc21)CCN3C(=O)Nc1cccnc1 [SB 206553 hydrochloride]
  % conversion: 28.82%

## CC[C@H](NC(=O)c1c(C)c(-c2ccccc2)nc2ccccc12)c1ccccc1 [SB 222200]
[4]
  Plate 1 (% inhibition): -26.34%
[5]
  Plate 1 (% conversion): 44.72%

## Cc1cc2c(cc1Cl)N(C(=O)Nc1ccc(Oc3cccnc3C)nc1)CC2.Cl.Cl.O [SB 242084 dihydrochloride hydrate]
[3]
  Plate 3 (% conversion): 37.92%

## CC1CCN(CC[C@H]2CCCN2S(=O)(=O)c2cccc(O)c2)CC1.Cl [SB 269970 hydrochloride]
[2]
  % inhibition: -11.63%
[1]
  % conversion: 40.44%

## Cc1cc2c(cc1Cl)N(C(=O)Nc1cccc3ncccc13)CC2 [SB-215505]
[3]
  Plate 3 (% conversion): 42.68%

## COc1cccc(NC(=O)/C=C/c2ccc(Cl)cc2)c1 [SB-366791]
[2]
  % inhibition: 0.24%
[1]
  % conversion: 36.39%

## CC(=O)NNC(=O)N1Cc2ccccc2Oc2ccc(Cl)cc21 [SC 19220]
[1]
  % conversion: 29.06%

## NS(=O)(=O)c1ccc(-n2nc(C(F)(F)F)cc2-c2ccc(Cl)cc2)cc1 [SC-236]
[3]
  Plate 3 (% conversion): 40.00%
  Plate 5 (% inhibition): -23.50%
  Plate 5 (% conversion): 44.31%

## N#CC(CCCN1CCN(/N=C/c2cccnc2)CC1)(c1ccccc1)c1ccccc1 [SC-26196]
  Plate 5 (% inhibition): 23.44%
  Plate 5 (% conversion): 28.34%
